Measured values published in patent US8685963B2, “Compounds that inhibit NFκB and BACE1 activity” (The Trustees of Columbia University in the city of New York, priority 2008, dated 2014).

How the values were obtained:
NFkB [1] = assay: TNFα-induced NFkB nuclear translocation high-content screen in HUVEC; format: cell-based, human
Text: FIG. 5A-B depicts (A) The two-color dual luciferase based assay. IκBα is fused to a luciferase emitting greenlight (CBG68), while a red light-emitting luciferase (CBR) is present in its native state. Both luciferases are regulated by binding of the tet repressor to the tet operator (TO) binding site (TO), allowing simultaneous induction of the luciferases by the CMV promoter upon addition of doxycycline and test compounds. The CBR protein serves to normalize for non-specific effects, while the levels of the IκBα-CBG68 protein increase uniquely with inhibition of the NFκB pathway leading to IκBα degradation. (B) The nuclear translocation assay. TNFα stimulation results in nuclear translocation of NFκB, which is detected by immunofluorescence using an anti-p65 antibody and a secondary antibody labeled with an Alexa 647 fluorophore (A647). […] In the assay, nuclear translocation of the endogenous p65 RelA subunit of NFkB, at 30 min post-stimulation, was monitored using fluorescent antibody detection and an automated imaging platform. (Mayer et al., 2006, Methods Enzyme 414:266) NFkB inhibitors in this assay, such as IkBα stabilizers, were detected as compounds that interfered with p65 translocation to the nucleus.

IkBα = assay: dual luciferase IkBα stabilization screen in OCI-Ly3; format: cell-based; details: OCI-Ly3 cells
Text: FIG. 5A-B depicts (A) The two-color dual luciferase based assay. IκBα is fused to a luciferase emitting greenlight (CBG68), while a red light-emitting luciferase (CBR) is present in its native state. Both luciferases are regulated by binding of the tet repressor to the tet operator (TO) binding site (TO), allowing simultaneous induction of the luciferases by the CMV promoter upon addition of doxycycline and test compounds. The CBR protein serves to normalize for non-specific effects, while the levels of the IκBα-CBG68 protein increase uniquely with inhibition of the NFκB pathway leading to IκBα degradation. (B) The nuclear translocation assay. TNFα stimulation results in nuclear translocation of NFκB, which is detected by immunofluorescence using an anti-p65 antibody and a secondary antibody labeled with an Alexa 647 fluorophore (A647). […]
To identify modulators of IkBα stability in ABC-DLBCL lines, such as small molecules inhibiting IKK or proteasome activity, changes in the level of an exogenous IkBα-luciferase fusion reporter expressed by an NFkB-insensitive promoter were measured. […] Upon doxycycline induction of both luciferase reporters, compounds that increased green luminescence with minimal effects on the red luminescence signal were scored as IkBα stabilizers. […]

NFkB [2] = assay: NFkB-dependent β-lactamase reporter assay (NFkB-bla), TNFα stimulated; format: cell-based
Text: By way of example, and not of limitation, such an assay may comprise contacting a cell expressing the NFκβ-dependent reporter construct, and monitoring the level of β-lactamase expression, wherein a decrease in expression compared to a cell not contacted with the compound indicates a reduction in NFκB activity.
The above-described assays were validated using known inhibitors of the NFkB pathway (FIG. 6). The proteasome inhibitor MG-132 (1) 16 served as a positive control for the IkBα stabilization assay. The translocation assay used BAY 11-7082 (2), an agent that inhibits the TNFα-induced phosphorylation of IkBα. […] Additionally, a substituted 2-(thiophen-2-yl)quinazoline 3 which acts as an inhibitor of NFkB and Aβ1 mediated transcriptional activation (Palanki et al., 2003, Bioorg. Med. Chem. Lett. 13:4077) was used as a positive control in a secondary assay that used TNFα to stimulate NFkB-dependent expression of a β-lactamase reporter (NFkB-bla in FIG. 7). This compound also served as a negative control for the dual luciferase IkBa stabilization assay.

O=S(=O)(Nc1cccc2cccnc12)c1ccccc1 [Compound 4, N-(quinolin-8-yl)benzenesulfonamide]
identified in NFkB translocation screen (NFkB [1]): identified
identified in IkBα stabilization screen (IkBα): identified
ability to inhibit the NFkB pathway (β-lactamase reporter) (NFkB [2]): confirmed the ability of these compounds to inhibit the NFkB pathway
